Measured values reported in ChEMBL document CHEMBL1201862, “PubChem BioAssay data set” (2004).
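Dose response: 5 concentrations. Exposure: 48 h. Format: 96-well plates. Endpoint: linear interpolation; highest concentration if not reached. GI50 marks 50% less growth.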 Calls of active or inactive are those of the source. No stated cut-off is given here; in the data, active = GI50 up to about 1.1 µM and inactive = higher.

Experiments:
Test in all cases: NCI tumour cell line growth inhibition, 48 h
[1] = tested on: A498
[2] = tested on: CAKI-1
[3] = tested on: EKVX
[4] = tested on: HCT-15
[5] = tested on: HOP-92
[6] = tested on: HT-29
[7] = tested on: KM12
[8] = tested on: MCF7
[9] = tested on: NCI-H226
[10] = tested on: NCI-H522
[11] = tested on: NCI/ADR-RES
[12] = tested on: OVCAR-3
[13] = tested on: OVCAR-4
[14] = tested on: SF-268
[15] = tested on: SF-539
[16] = tested on: SK-MEL-5
[17] = tested on: SNB-75
[18] = tested on: SR
[19] = tested on: TK-10
[20] = tested on: M19-MEL

Measured: GI50

CN(CCO)Cc1ncccc1O
> 100 µM: [4]
inactive: [1] > 100 µM | [2] > 100 µM | [3] > 100 µM | [5] > 100 µM | [6] > 100 µM | [7] > 100 µM | [8] > 100 µM | [9] > 100 µM | [10] > 100 µM | [11] > 100 µM | [12] > 100 µM | [13] > 100 µM | [14] > 100 µM | [15] > 100 µM | [16] > 100 µM | [17] > 100 µM | [18] > 100 µM | [19] > 100 µM

CON(C)C(C#N)=C(C#N)C#N
inactive: [1] > 10 µM | [2] > 10 µM | [3] > 10 µM | [6] > 10 µM | [7] > 10 µM | [8] > 10 µM | [9] 2.86 µM | [10] > 10 µM | [11] > 10 µM | [12] > 10 µM | [13] > 10 µM | [14] > 10 µM | [15] > 10 µM | [16] > 10 µM | [17] > 10 µM | [18] > 10 µM | [19] > 10 µM
> 10 µM: [4]

O=C1c2ccccc2N(O)C1(c1ccccc1)C1CCCC=C1N1CCOCC1 (stereo not given)
inactive: [2] > 100 µM | [3] 34.7 µM | [6] > 100 µM | [20] > 100 µM | [9] 69.5 µM | [10] 22.5 µM | [12] > 100 µM | [14] 40.8 µM | [15] 80.9 µM | [16] > 69.5 µM | [17] 18.4 µM | [18] 28.4 µM | [19] > 100 µM
91.2 µM: [4]

COc1cccc(OCC(=N/NC(=O)c2ccncc2)/N=C/c2ccncc2)c1
> 100 µM: [4]
inactive: [1] > 100 µM | [2] > 100 µM | [3] > 100 µM | [5] > 100 µM | [6] > 100 µM | [7] > 100 µM | [8] > 100 µM | [9] > 100 µM | [10] > 100 µM | [11] > 100 µM | [12] > 100 µM | [13] > 100 µM | [14] > 100 µM | [15] > 100 µM | [19] > 100 µM

O=[N+]([O-])c1ccc(N2N=C(c3ccc(NCc4nc5ccccc5[nH]4)cc3)CC2c2ccco2)cc1 (stereo not given)
inactive: [1] 28.8 µM | [2] 48.6 µM | [5] 32.2 µM | [6] 27.5 µM | [7] 16.7 µM | [20] 29.3 µM | [10] 15.5 µM | [12] 21.8 µM | [13] 20.2 µM | [14] 34.8 µM | [15] 26.1 µM | [16] 14.2 µM | [17] 27.9 µM | [18] 8.85 µM | [19] 47.2 µM
21.3 µM: [4]

CC1NC(=O)C(C)C(c2ccccc2)N(N=O)C1c1ccccc1 (stereo not given)
inactive: [1] 12.8 µM | [2] > 100 µM | [3] > 83 µM | [5] 39.7 µM | [6] 29.2 µM | [7] 74.1 µM | [8] 50 µM | [9] > 100 µM | [10] 88.9 µM | [11] > 69.8 µM | [12] > 52.5 µM | [13] 31.3 µM | [14] > 100 µM | [15] > 100 µM | [16] > 71.3 µM | [17] > 38.3 µM
55.2 µM: [4]

CC(=O)Nc1ccc(C(=O)NN2C(=O)C(Cl)/C2=C/c2ccco2)cc1 (stereo not given)
inactive: [5] > 100 µM | [6] > 100 µM | [7] > 100 µM | [20] > 100 µM | [9] > 100 µM | [10] > 100 µM | [12] > 100 µM | [14] > 100 µM | [15] > 100 µM | [16] > 100 µM | [17] > 100 µM | [18] > 100 µM | [19] > 100 µM

CC1=CC(C)C(C)N(CC2=NCCN2)c2ccccc21 (stereo not given)
> 100 µM: [4]
inactive: [1] > 59.8 µM | [2] > 86.9 µM | [3] > 100 µM | [5] 11 µM | [6] 18.7 µM | [7] > 68.4 µM | [8] 53.7 µM | [9] 68.1 µM | [10] 29.2 µM | [11] 99.5 µM | [12] 56.8 µM | [13] > 100 µM | [14] 72.8 µM | [15] 62.1 µM | [16] 20.1 µM | [17] 46 µM | [18] 26 µM | [19] 54.2 µM

CC(=O)OCc1c(C)c2ccccc2n1C(C)=O
inactive: [1] 38.3 µM | [2] > 100 µM | [3] > 100 µM | [5] 98.6 µM | [6] 59.2 µM | [7] 40.5 µM | [20] 53 µM | [9] 87.5 µM | [10] 20 µM | [12] 26.7 µM | [13] 32.1 µM | [14] 43.6 µM | [15] 38.2 µM | [16] 35.2 µM | [17] 82.6 µM | [18] 36.1 µM | [19] 30.5 µM

Cn1cc(-c2csc(-c3cn(C)c4ccccc34)n2)c2ccccc21
inactive: [1] 12.6 µM | [2] 17.8 µM | [5] 20.8 µM | [6] > 100 µM | [7] 43.3 µM | [8] 45.5 µM | [9] 32.2 µM | [10] 76.7 µM | [11] > 100 µM | [12] 23.5 µM | [13] 22.2 µM | [14] 58.2 µM | [16] 26.9 µM | [19] 27 µM
> 100 µM: [4]

Cn1c2ccc([N+](=O)[O-])cc2c(=O)n1Cc1ccccc1F
inactive: [1] 37.2 µM | [2] 99.3 µM | [3] 41.5 µM | [5] 27.7 µM | [6] 54.7 µM | [7] 35.3 µM | [8] > 100 µM | [9] 29.4 µM | [10] 24.5 µM | [11] 23 µM | [12] 40.8 µM | [13] 47.8 µM | [14] 36.6 µM | [15] 25.2 µM | [16] 38.3 µM | [17] 20.9 µM | [18] 59.8 µM | [19] 34 µM
40.5 µM: [4]

CC1CC/C(=C\c2ccc(N(C)C)cc2)C2=C1C(c1ccc(N(C)C)cc1)NC(=S)N2 (stereo not given)
> 100 µM: [4]
inactive: [1] > 100 µM | [2] > 100 µM | [3] > 100 µM | [6] > 100 µM | [7] > 100 µM | [8] > 100 µM | [9] > 100 µM | [11] > 100 µM | [12] > 100 µM | [14] > 100 µM | [15] > 100 µM | [16] > 100 µM | [17] > 100 µM | [19] > 100 µM

CN1C(=O)CCC1c1ccc2c(c1)oc(=O)n2C (stereo not given)
inactive: [2] > 100 µM | [3] > 100 µM | [6] > 100 µM | [7] > 100 µM | [20] > 100 µM | [9] > 100 µM | [10] > 100 µM | [13] > 100 µM | [14] > 100 µM | [15] > 100 µM | [17] > 100 µM | [19] > 100 µM
> 100 µM: [4]

CN(C)C(=O)NCCN1CCCCCc2ccccc21
> 100 µM: [4]
inactive: [1] > 100 µM | [2] > 100 µM | [3] > 100 µM | [5] 32.4 µM | [6] > 100 µM | [7] > 100 µM | [8] > 100 µM | [9] 49.7 µM | [10] > 100 µM | [11] > 100 µM | [12] 37 µM | [13] 78 µM | [14] > 100 µM | [15] > 100 µM | [16] 24.3 µM | [18] > 100 µM | [19] > 100 µM

CCN(CC)c1cccc2c1/C(=N/O)CCCC2
inactive: [3] > 100 µM | [6] 97.1 µM | [7] > 100 µM | [20] > 100 µM | [9] > 100 µM | [10] > 100 µM | [13] > 100 µM | [14] > 100 µM | [16] 70.8 µM | [17] 84.1 µM | [18] > 100 µM | [19] > 100 µM
> 100 µM: [4]

CC[C@H](O)[C@H](C)C=C1SCCCS1
> 100 µM: [4]
inactive: [1] > 100 µM | [2] > 100 µM | [3] > 100 µM | [5] > 100 µM | [6] > 100 µM | [7] > 100 µM | [8] > 100 µM | [9] > 100 µM | [10] > 100 µM | [11] > 100 µM | [12] > 100 µM | [13] > 100 µM | [14] > 100 µM | [16] > 100 µM | [17] > 100 µM | [18] > 100 µM | [19] > 100 µM

CCOC(=O)c1cc(Br)c(-c2cc(C)no2)[nH]1
25 µM: [4]
inactive: [1] 20.2 µM | [3] 34.8 µM | [5] 29.9 µM | [6] 41.6 µM | [7] 10.1 µM | [9] 31 µM | [10] 20.7 µM | [11] 30.4 µM | [12] 21.3 µM | [13] 23.3 µM | [14] 31.6 µM | [15] 33.8 µM | [16] 21.7 µM | [17] 23.9 µM | [19] 46.5 µM

O=C1C(Cl)N(c2ccccc2[N+](=O)[O-])C1c1c[nH]c2ccccc12 (stereo not given)
inactive: [3] 83.6 µM | [5] 81.3 µM | [6] > 100 µM | [7] > 100 µM | [20] > 100 µM | [10] > 100 µM | [12] > 100 µM | [13] > 100 µM | [14] > 100 µM | [15] > 100 µM | [16] > 100 µM | [17] 27.4 µM | [18] > 100 µM | [19] > 100 µM
